Measurements as given in patent US5015661A, “Chromanes and their pharmaceutical compositions and methods” (Hoffmann-La Roche Inc., priority 1989, dated 1991).
pIC50: −log10 of the molar value.

How the values were obtained:
[1] = tested on: arachidonic acid-induced mouse ear edema; experiment: Mouse ear edema test (in vivo), arachidonic acid-induced; details: 1 mg topical, CD-1 male mice, 0.5 mg arachidonic acid 0.5 or 4 hours later, ear biopsy weight after 1 hour, read-out: EAR EDEMA % INHIB. 1 mg
Protocol: MOUSE EAR EDEMA TEST (IN VIVO)
In this animal model system, the application of arachidonic acid to the ear results in the biosynthesis of the metabolic products […]-6,8,11,14-eicosatetraenoic acid (5-HETE), leukotriene B4 (LTB4), leukotriene C4 (LTC4), […]-5,8,10,14-eicosatetraenoic acid (12-HETE), and prostaglandin E2 (PGE2) at the site of application, followed by the influx of neutrophils into the site and the rapid development of edema within 30 to 60 minutes (See, for instance, Young, Wagner and Spries, "Tachyphylaxis in 12-O-Tetradecanoylphorbol Acetate And Arachidonic Acid-Induced Ear Edma," J. Invest. Dermatol. 80:48 (1983) and Hames, Opas and Bonney, "Arachidonic Acid MetaboIites in Mouse Ear Edma" Advances in Inflammation Research. 11:57 (1986).
CD-1 male mice weighing 15 to 25 g were employed, and they were designated as follows: (1) Control Group, in which no arachidonic acid or test compound was to be applied, (2) Arachidonic Acid-Treated Group, in which no test compound was to be applied, and (3) Treated Group, in which the test compound was to be applied first, followed by the application of arachidonic acid.
In the case of the Group (3) animals, the test compound, dissolved in acetone, was applied to the dorsal surface of the right ear of the mouse with a 25-microliter pipette or, with the dose of the test compound being varied. After 0.5 hours in some cases and 4 hours in others, the arachidonic acid was topically applied in the same manner as above to the pretreated ear areas. In each case of arachidonic acid application, an amount of 0.5 mg dissolved in 25 microliters of acetone was used. After 1 hour, the mice were sacrificed by carbon dioxide inhalation. A 6mm-diameter standard biopsy punch was used to obtain a uniform tissue sample from the ear of each mouse so treated, and the tissue samples were weighted to the nearest 0.1 mg. The percent inhibition of ear edema formation was calculated as follows: [formula]

[2] = biological target: superoxide-dependent, iron-promoted lipid peroxidation of native rat heart cardiac lipid liposomes; experiment: Lipid peroxidation inhibition (in vitro testing of antiperoxidative agents, ANTI-OX), hypoxanthine-xanthine oxidase-Fe3+.ADP, rat cardiac liposomes, MDA equivalents; type: biochemical; details: 60 min, 37° C., screened at 1.0 μM, IC50 determined if inhibition ≥ 50%, read-out: ANTI-OX IC-50
Protocol: The test system employs hypoxanthine-xanthine oxidase (XO)-Fe^3+. ADP as the free radical generator and purified, native rat-heart membrane phosphoglyceride in Hepes-KCl buffer, pH 7.4, as the substrate. Inhibition of superoxide-dependent, iron-promoted lipid peroxidation in the linear reaction phase (after 1 hour of reaction) is measured as the net formation of thiobarbituric acid (TBA)-reactive material. In this system, the TBA-reactive material, isolated by HPLC, is exclusively (>95%) malondialdehyde (MDA), a fragmentation end-product arising from fatty acyl hydroperoxides and cyclic endoperoxides. […]
a) Isolation and purification of Rat Cardiac Lipid
Conscious male Sprague-Dawley rats (~275g) maintained on a normal rodent diet were decapitated. The hearts were rapidly removed and perfused via the aorta with ice-cold 10 mM Hepes buffer, pH 7.4. The aorta and atria were removed, and the ventricular tissue was blotted and weighed (wet weight). The hearts were minced on ice with scissors and finally homogenized (100 mg tissue/ml ice-cold buffer) for 15 seconds (3×5 seconds) with a Tekmar Tissumizer at "maximal" setting. The homogenate was filtered through 4-ply cheesecloth, and homogenate lipids were extracted and purified by a modified Bligh-Dyer procedure (M.D. Marshall and M. Kates, Biochem. Biophys. Acta 260, 558 (1972). The cardiac lipids were stored in CHCl3 under nitrogen at -20° C. […]
b) Preparation of Cardiac Liposomes
Liposomes were prepared from extracted and purified, native rat heart cardiac lipid and were used as substrate for free-radical attack. Cardiac lipid (in CHCl3) was placed in a glass flask and evaporated to dryness under nitrogen at room temperature; the flask was gently rotated during evaporation to yield a thin, dry lipid film. The lipid was taken up in 10 mM Hepes-0.145M KCl, pH 7.4, and was resuspended by indirect an aerobic sonification for 15 minutes at room temperature. The liposome suspension was used immediately. […]
c) preparation of Fe^3+ -ADP Chelate
A chelate was formed in Hepes-KCl buffer between Fe^3+ (1.0mM FeCl3, final concentration) and ADP (10mM, final concentration) at pH 7.4 with stirring at room temperature. Chelation was allowed to proceed for 90 minutes prior to use. The chelate was prepared fresh for each days experiments to ensure iron solubility, effective chelation, and valence state. […]
d) Thiobarbituric Acid Reaction or Determination of Malondialdehvde Equivalents Malondialdehyde (MDA) equivalents were measured as thiobarbituric acid (TBA)-reactive material by the following modification of published methods. The reaction mixture. prepared fresh daily, contained water: BHT ([…] BHT in absolute ethanol): TBA (1.5% TBA in 0.2M Tris, pH 7.0) in the volume ratio 1:1:5. To each 1.0 ml of peroxidation reaction assayed (see below), 0.35 ml reaction mixture was added. After thorough mixing, the tubes were incubated in an 80° C. shaking water bath for 30 minutes. After this time, the tubes were plunged into an ice water bath, and the reaction was immediately stopped with 0.5 ml ice-cold 91% TCA followed by 2.0 ml CHCl3 After centrifugation for 30 minutes at 2000 rpm in a Sorval HL-8 rotor (4° C.), the absorbance of the washed, pink upper phase was read at 532 nm. A standard curve (0.8-40.0 nmol MDA) was run with every assay. For each curve, MDA was freshly prepared by acidification of 1,1,3,3 -tetraethoxypropane with 75% TCA-2.3N HCl (0.15 ml acid mixture with 1.0 ml suitably diluted tetraethoxypropane). Computer-assisted regression analysis of the standard curve was used to quantify the molar amounts of MDA equivalents in the experimental samples. […]
e) Lipid peroxidation Reaction
Cardiac liposomes were subjected to superoxidedependent. iron-promoted peroxidation in glass vessels to avoid the well-known antioxidant effects of many common polymerizing agents used to fabricate plastic labware. […]

Row | Structure (SMILES) | inhibition in vivo at 1 mg [1] | pIC50 [2]
1 | Cc1c(C)c2c(c(C)c1O)CCC(C)(C#Cc1cccs1)O2 (racemic) [Example 4, rac-3,4-Dihydro-2,5,7,8-tetramethyl-2-[(2-thienyl)ethynyl]-2H-1-benzopyran-6-ol] | 61% | 6.05
2 | Cc1c(C)c2c(c(C)c1O)CCC(C)(C#Cc1cccnc1)O2 (racemic) [Example 14, rac-3,4-Dihydro-2,5,7,8-tetramethyl-2-[(3-pyridinyl)ethynyl]-2H-1-benzopyran-6-ol] | 20% | 6.22
3 | Cc1c(C)c2c(c(C)c1O)CCC(C)(C#Cc1ccccn1)O2 (racemic) [Example 15, rac-3,4-Dihydro-2,5,7,8-tetramethyl1-2-[(2-pyridinyl)ethynyl]-2H-1-benzopyran-6-ol] | 18% | < 6.00
4 | Cc1c(C)c2c(c(C)c1O)CCC(C)(C#Cc1csc3ccccc13)O2 (racemic) [Example 16, rac-[2-(Benzo[b]thiophen-3-yl)ethynyl]-3.4-dihydro-2,5,7,8-tetramethyl-2H-1-benzopyran-2H-1-benzopyran-6-ol] | 62% | 6.25
5 | CCCCc1ccc(C#CC2(C)CCc3c(C)c(O)c(C)c(C)c3O2)s1 (racemic) [Example 31, rac-2-[(5-Butyl-2-thienyl)ethynyl]-3,4-dihydro-2,5,7,8-tetramethyl-2H-1-benzopyran-6-ol] | 24% | 6.26
6 | Cc1c(C)c2c(c(C)c1O)CCC(C)(C#Cc1cccc(C(F)(F)F)c1)O2 (racemic) [Example 35, rac-2-{[3-(Trifluoromethyl)phenyl]ethynyl-3,4-dihydro-2,5,7,8-tetramethyl-2H-1-benzopyran-6-ol] | 15% | 6.10
7 | CC(=O)Oc1cc(C#CC2(C)CCc3c(C)c(O)c(C)c(C)c3O2)ccc1OCc1ccccc1 (racemic) [Example 41, rac-2-{[3-Acetyloxy-4-(phenylmethoxy)phenyl]ethynyl}-3,4-dihydro-2,5,7,8-tetramethyl-2H-1-benzopyran-6-ol] | 31% | 6.32
8 | Cc1c(C)c2c(c(C)c1O)CCC(C)(C#Cc1ccc(OCc3ccccc3)c(O)c1)O2 (racemic) [Example 43, rac-3,4-Dihydro-2-{[3-hydroxy-4-(phenylmethoxY)phenyl]-ethynyl}-2,5,7,8-tetramethyl-2H-1-benzopyran-6-ol] | 31% | 6.43
9 | Cc1c(C)c2c(c(C)c1O)CCC(C)(c1cc3ccccc3o1)O2 (racemic) [Example 50 (CH; H, H, H), rac-2-(2-Benzofuranyl)-3,4-dihydro-2,5,7,8-tetramethyl-2H-1-benzopyran-6-ol] | 68% | 6.00
10 | Cc1ccc2oc(C3(C)CCc4c(C)c(O)c(C)c(C)c4O3)cc2n1 (racemic) [Example 51, rac-3,4-Dihydro-2-(5-methylfuro[3,2[b]pyridin-2-yl)-2,5,7,8-tetramethyl-2H-1-benzopyran-6ol] | 69% | < 6.00
11 | Cc1c(C)c2c(c(C)c1O)CCC(C)(c1cc3ncccc3o1)O2 (racemic) [Example 52, rac-3,4-Dihydro-2-(furo[3,2-b]pyridine-2-yl)-2,5,7,8-tetramethyl-2H-1-benzopyran-6-ol] | 49% | 6.02
12 | CCCc1c(O)c(C(C)=O)cc2cc(C3(C)CCc4c(C)c(O)c(C)c(C)c4O3)oc12 (racemic) [Example 53, rac-1-2-(3,4-Dihydro-6-hydroxy-2,5,7,8-tetramethyl-2H-1-benzopyran-2-yl)-6-hydroxy-7-propylbenzofuran-5-yl]ethanone] | 54% | 6.22
13 | Cc1c(C)c2c(c(C)c1O)CCC(C)(CCc1cccs1)O2 (racemic) [Example 57, rac-3,4-Dihydro-2,5,7,8-tetramethyl-2-[2-(2-thienyl)ethyl]-2H-1-benzo-pyran-6-ol] | 41% | < 6.00
14 | Cc1c(C)c2c(c(C)c1O)CCC(C)(CCc1ccccn1)O2 (racemic) [Example 58, rac-3,4-Dihydro-2,5,7,8-tetramethyl-2-[2-(2-pyridinyl)ethyl]-2H-1-benzopyran-6-ol] | 31% | 6.15
15 | Cc1c(C)c2c(c(C)c1O)CCC(C)(CCc1cccnc1)O2 (racemic) [Example 59, rac-3,4-Dihydro-2,5,7,8-tetramethyl-2-[2-(3-pyridinyl)ethyl]-2H-1-benzopyran-6-ol] | 48% | 6.30
16 | Cc1c(C)c2c(c(C)c1O)CCC(C)(CCc1ccc(O)c(O)c1)O2 (racemic) [Example 61, rac-4-[2-(3,4-Dihydro-6-hydroxy-2,5,7,8-tetramethyl-2H-1-benzopyran-2-yl)ethyl]-1,2-benzenediol] | 55% | < 6.00
17 | Cc1c(C)c2c(c(C)c1O)CC[C@](C)(C#Cc1cccs1)O2 [Example 5, (R)-3,4-Dihydro-2,5,7,8-tetramethyl-2-[(2-thienyl)ethynyl]-2H-1-benzopvran-6-ol] | 66% | 6.10
18 | Cc1c(C)c2c(c(C)c1O)CC[C@@](C)(C#Cc1cccs1)O2 [Example 13, (S)-3,4-Dihydro-2,5,7,8-tetramethyl-2-[(2-thienyl)ethynyl]-2H-1-benzopyran-6-ol] | 32% | < 6.00
